From patent publication US6455551B1, “Use of 1-hydroxy-2-pyridones for treating mucosa diseases which are difficult to treat” (Aventis Pharma Deutschland GmbH, priority 1996, dated 2002)
Values after ≈ are worked out from the molar mass of the structure shown. Like-named read-outs stand apart in the source and are kept apart here.

Legend:
Type in all cases: cell-based
[1] = tested on: Entamoeba histolytica; experiment: In vitro activity on protozoa, Entamoeba histolytica
Excerpt: (§1) In vitro activity of the Compound 1 on protozoa

[2] = tested on: Trichomonas vaginalis; experiment: In vitro activity on protozoa, Trichomonas vaginalis
Excerpt: as §1

[3] = tested on: Candida albicans; experiment: Microtiter dilution MIC test in RPMI 1640 medium, Candida albicans strains; conditions: read-out: Minimum inhibitory concentration (MIC)
Method: (§2) Fluconazole-resistant strains of Candida albicans are isolated from patients who have been treated, for example, with fluconazole for more than one year. For this purpose, samples are taken from the patients' mouths and applied, undiluted or diluted 1:100, to an RPMI 1640 agar (Gibco/BRL, Life Technologies GmbH, D-76339 Eggenstein) which contains about 1.0 μg/ml fluconazole. Resistant Candida albicans strains are isolated, further purified on agar and stored isolated in peptone/dextrose slant agar tubes.
(§3) The activity of Compound 1 and fluconazole is determined by the microtiter dilution technique in RPMI 1640 medium. The growth medium RPMI 1640 buffered with 0.165 M morpholinopropanesulfonic acid pH 7.0 is introduced into 96-well microtiter plates. Serial dilutions by a factor of 2 are prepared for Compound 1 and fluconazole to result in final concentrations of 256 to 0.002 μg/ml of Compound 1 and fluconazole. The microtiter plates prepared in this way are incubated with the Candida strains to be tested. For comparison purposes, the two Candida albicans strains ATCC 90028 and 90029 which are not resistant to fluconazole are included in the test. The initial cell count is 1-5 ×10^3 colony-forming units per ml of growth medium. The microtiter plates are incubated at 35° C. for 48 hours. The minimum inhibitory concentration is determined by photometry at 510 nm.

[4] = tested on: Candida guillermondii; experiment: Microtiter dilution MIC test in RPMI 1640 medium, Candida guillermondii strain; conditions: Candida guillermondii B47; 35° C., 48 hours; read-out: Minimum inhibitory concentration (MIC)
Method: as §2, §3

[5] = tested on: Candida krusei; experiment: Microtiter dilution MIC test in RPMI 1640 medium, Candida krusei strains; conditions: Pichia kudriavzevii, 48 h, read-out: Minimum inhibitory concentration (MIC)
Method: as §2, §3

[6] = tested on: Candida glabrata; experiment: Microtiter dilution MIC test in RPMI 1640 medium, Candida glabrata strains; conditions: Nakaseomyces glabratus, 48 h, read-out: Minimum inhibitory concentration (MIC)
Method: as §3

[7] = 48 h, Candida albicans 94/3, 35° C.
[8] = 48 h, Candida albicans 94/14, 35° C.
[9] = 48 h, Candida albicans 94/57, 35° C.
[10] = 48 h, Candida albicans 94/62, 35° C.
[11] = 48 h, Candida albicans 94/90, 35° C.
[12] = 48 h, Candida albicans 94/118, 35° C.
[13] = 48 h, Candida albicans 94/134, 35° C.
[14] = 48 h, Candida albicans 94/138, 35° C.
[15] = 48 h, Candida albicans 94/222, 35° C.
[16] = 48 h, Candida albicans 94/231, 35° C.
[17] = 48 h, Candida albicans B6, 35° C.
[18] = 48 h, Candida albicans B70, 35° C.
[19] = 48 h, Candida albicans B75, 35° C.
[20] = ATCC90028, 48 h, Candida albicans ATCC 90028 (not resistant to fluconazole), 35° C.
[21] = ATCC90029, 48 h, Candida albicans ATCC 90029 (not resistant to fluconazole), 35° C.

Cc1cc(COc2ccc(Oc3ccc(Cl)cc3)cc2)n(O)c(=O)c1 [Compound 1, 6-[4-(4-chlorophenoxy)phenoxymethyl]-1-hydroxy4-methyl-2(1H)-pyridone]
MIC ([1]; 3 of n = 4 strains investigated): 62.5 µg/mL (≈ 175 µM)
MIC ([1]; remaining strain of n = 4 strains investigated (count not given)): 31.2 µg/mL (≈ 87.2 µM)
MIC ([2]; 2 of n = 5 strains investigated): 125 µg/mL (≈ 349 µM)
MIC ([2]; 3 of n = 5 strains investigated): 31.2 µg/mL (≈ 87.2 µM)
MIC [3, 7]: 2 µg/mL (≈ 5.59 µM)
MIC [3, 8]: 2 µg/mL (≈ 5.59 µM)
MIC [3, 9]: 1 µg/mL (≈ 2.79 µM)
MIC [3, 10]: 1 µg/mL (≈ 2.79 µM)
MIC [3, 11]: 1 µg/mL (≈ 2.79 µM)
MIC [3, 12]: 2 µg/mL (≈ 5.59 µM)
MIC [3, 13]: 1 µg/mL (≈ 2.79 µM)
MIC [3, 14]: 1 µg/mL (≈ 2.79 µM)
MIC [3, 15]: 1 µg/mL (≈ 2.79 µM)
MIC [3, 16]: 1 µg/mL (≈ 2.79 µM)
MIC [3, 17]: 1 µg/mL (≈ 2.79 µM)
MIC [3, 18]: 1 µg/mL (≈ 2.79 µM)
MIC [3, 19]: 1 µg/mL (≈ 2.79 µM)
MIC [3, 20]: 1 µg/mL (≈ 2.79 µM)
MIC [3, 21]: 0.5 µg/mL (≈ 1.4 µM)
MIC [4]: 1 µg/mL (≈ 2.79 µM)
MIC ([5]; Candida krusei B1, 35° C.): 0.5 µg/mL (≈ 1.4 µM)
MIC ([5]; Candida krusei B4, 35° C.): 1 µg/mL (≈ 2.79 µM)
MIC ([6]; Candida glabrata B12, 35° C.): 0.5 µg/mL (≈ 1.4 µM)
MIC ([6]; Candida glabrata B14, 35° C.): 0.5 µg/mL (≈ 1.4 µM)
MIC ([6]; Candida glabrata B18, 35° C.): 0.5 µg/mL (≈ 1.4 µM)
MIC ([6]; Candida glabrata B21, 35° C.): 1 µg/mL (≈ 2.79 µM)
MIC ([6]; Candida glabrata B35, 35° C.): 1 µg/mL (≈ 2.79 µM)
MIC ([6]; Candida glabrata B37, 35° C.): 1 µg/mL (≈ 2.79 µM)
MIC ([6]; Candida glabrata B38, 35° C.): 1 µg/mL (≈ 2.79 µM)
MIC ([6]; Candida glabrata B39, 35° C.): 0.5 µg/mL (≈ 1.4 µM)
MIC ([6]; Candida glabrata B40, 35° C.): 1 µg/mL (≈ 2.79 µM)
MIC ([6]; Candida glabrata B50, 35° C.): 0.5 µg/mL (≈ 1.4 µM)
MIC ([6]; Candida glabrata B51, 35° C.): 0.5 µg/mL (≈ 1.4 µM)

OC(Cn1cncn1)(Cn1cncn1)c1ccc(F)cc1F [Fluconazole, fluconazole, reference compound]
MIC [3, 7]: 32 µg/mL (≈ 104 µM)
MIC [3, 8]: 32 µg/mL (≈ 104 µM)
MIC [3, 9]: > 256 µg/mL
MIC [3, 10]: > 256 µg/mL
MIC [3, 11]: > 256 µg/mL
MIC [3, 12]: > 256 µg/mL
MIC [3, 13]: > 256 µg/mL
MIC [3, 14]: > 256 µg/mL
MIC [3, 15]: > 256 µg/mL
MIC [3, 16]: > 256 µg/mL
MIC [3, 17]: 1 µg/mL (≈ 3.27 µM)
MIC [3, 18]: > 256 µg/mL
MIC [3, 19]: 2 µg/mL (≈ 6.53 µM)
MIC [3, 20]: 0.5 µg/mL (≈ 1.63 µM)
MIC [3, 21]: 1 µg/mL (≈ 3.27 µM)
MIC [4]: 4 µg/mL (≈ 13.1 µM)
MIC ([5]; Candida krusei B1, 35° C.): 32 µg/mL (≈ 104 µM)
MIC ([5]; Candida krusei B4, 35° C.): 16 µg/mL (≈ 52.2 µM)
MIC ([6]; Candida glabrata B12, 35° C.): 4 µg/mL (≈ 13.1 µM)
MIC ([6]; Candida glabrata B14, 35° C.): 2 µg/mL (≈ 6.53 µM)
MIC ([6]; Candida glabrata B18, 35° C.): 8 µg/mL (≈ 26.1 µM)
MIC ([6]; Candida glabrata B21, 35° C.): 8 µg/mL (≈ 26.1 µM)
MIC ([6]; Candida glabrata B35, 35° C.): 8 µg/mL (≈ 26.1 µM)
MIC ([6]; Candida glabrata B37, 35° C.): 16 µg/mL (≈ 52.2 µM)
MIC ([6]; Candida glabrata B38, 35° C.): 16 µg/mL (≈ 52.2 µM)
MIC ([6]; Candida glabrata B39, 35° C.): 8 µg/mL (≈ 26.1 µM)
MIC ([6]; Candida glabrata B40, 35° C.): 16 µg/mL (≈ 52.2 µM)
MIC ([6]; Candida glabrata B50, 35° C.): 16 µg/mL (≈ 52.2 µM)
MIC ([6]; Candida glabrata B51, 35° C.): 32 µg/mL (≈ 104 µM)
